Measured values reported in ChEMBL document CHEMBL3774360, “Potent multitarget FAAH-COX inhibitors: Design and structure-activity relationship studies” (Eur J Med Chem, 2016).
pIC50: −log10 of the molar value.

Columns and labels:
Homo sapiens [1] = organism: Homo sapiens; test: Binding affinity to P2X receptor (unknown origin) at 10 uM by radioligand binding assay
[2] = target: Glucocorticoid receptor (Homo sapiens) (UniProt P04150); test: Binding affinity to human glucocorticoid receptor at 10 uM by radioligand binding assay
[3] = target: Progesterone receptor (Homo sapiens) (UniProt P06401); test: Binding affinity to human progesterone receptor at 10 uM by radioligand binding assay
[4] = target: Androgen receptor (Homo sapiens) (UniProt P10275); test: Binding affinity to human androgen receptor at 10 uM by radioligand binding assay
[5] = target: Vasopressin V2 receptor (Homo sapiens) (UniProt P30518); test: Binding affinity to human V2 receptor at 10 uM by radioligand binding assay
Chain of Vasopressin V2 receptor (Homo sapiens) (P30518 whole entry): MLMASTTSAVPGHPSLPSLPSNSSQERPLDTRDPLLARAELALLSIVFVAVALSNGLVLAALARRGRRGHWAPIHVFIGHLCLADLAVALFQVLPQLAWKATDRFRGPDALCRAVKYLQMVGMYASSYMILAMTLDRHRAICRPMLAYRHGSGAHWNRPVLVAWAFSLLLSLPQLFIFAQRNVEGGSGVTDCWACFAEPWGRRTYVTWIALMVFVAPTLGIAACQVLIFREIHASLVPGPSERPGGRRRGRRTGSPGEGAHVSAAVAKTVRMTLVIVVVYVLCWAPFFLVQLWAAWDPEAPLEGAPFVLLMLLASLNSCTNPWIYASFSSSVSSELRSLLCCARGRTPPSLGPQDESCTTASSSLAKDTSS

Homo sapiens [6] = organism: Homo sapiens; test: Binding affinity to L-type calcium channel diltiazem binding site (unknown origin) at 10 uM by radioligand binding assay
Homo sapiens [7] = organism: Homo sapiens; test: Binding affinity to ATP-sensitive potassium channel (unknown origin) at 10 uM by radioligand binding assay
Homo sapiens [8] = organism: Homo sapiens; test: Binding affinity to sodium channel site 2 (unknown origin) at 10 uM by radioligand binding assay
[9] = target: Sodium-dependent serotonin transporter (Homo sapiens) (UniProt P31645); test: Binding affinity to human 5-HT transporter at 10 uM by radioligand binding assay
[10] = target: Thromboxane A2 receptor (Homo sapiens) (UniProt P21731); test: Agonist activity against human TP receptor at 10 uM
Chain of Thromboxane A2 receptor (Homo sapiens) (P21731 whole entry): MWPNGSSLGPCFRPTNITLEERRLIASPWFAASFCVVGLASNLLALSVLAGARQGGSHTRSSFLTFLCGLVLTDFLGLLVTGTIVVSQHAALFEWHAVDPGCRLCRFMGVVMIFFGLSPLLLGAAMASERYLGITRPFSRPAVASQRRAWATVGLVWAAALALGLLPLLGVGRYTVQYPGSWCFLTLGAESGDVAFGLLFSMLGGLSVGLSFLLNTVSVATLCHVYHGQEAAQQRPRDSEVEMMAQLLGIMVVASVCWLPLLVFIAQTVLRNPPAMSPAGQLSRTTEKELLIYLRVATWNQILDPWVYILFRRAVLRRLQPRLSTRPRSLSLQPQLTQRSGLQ

[11] = target: Secretory phospholipase A2 receptor (Homo sapiens) (UniProt Q13018); test: Binding affinity to human sPLA2 at 10 uM
[12] = target: Nitric oxide synthase, inducible (Homo sapiens) (UniProt P35228); test: Binding affinity to inducible NOS (unknown origin) at 10 uM
[13] = target: 3',5'-cyclic-AMP phosphodiesterase 4D (Homo sapiens) (UniProt Q08499); test: Binding affinity to human PDE4D2 at 10 uM
[14] = target: cGMP-specific 3',5'-cyclic phosphodiesterase (Homo sapiens) (UniProt O76074); test: Binding affinity to human PDE5 at 10 uM
[15] = target: Tyrosine-protein phosphatase non-receptor type 1 (Homo sapiens) (UniProt P18031); test: Binding affinity to PTPN1 (unknown origin) at 10 uM
[16] = target: Acetylcholinesterase (Homo sapiens) (UniProt P22303); test: Binding affinity to human acetylcholinesterase at 10 uM
Chain of Acetylcholinesterase (Homo sapiens) (P22303 whole entry): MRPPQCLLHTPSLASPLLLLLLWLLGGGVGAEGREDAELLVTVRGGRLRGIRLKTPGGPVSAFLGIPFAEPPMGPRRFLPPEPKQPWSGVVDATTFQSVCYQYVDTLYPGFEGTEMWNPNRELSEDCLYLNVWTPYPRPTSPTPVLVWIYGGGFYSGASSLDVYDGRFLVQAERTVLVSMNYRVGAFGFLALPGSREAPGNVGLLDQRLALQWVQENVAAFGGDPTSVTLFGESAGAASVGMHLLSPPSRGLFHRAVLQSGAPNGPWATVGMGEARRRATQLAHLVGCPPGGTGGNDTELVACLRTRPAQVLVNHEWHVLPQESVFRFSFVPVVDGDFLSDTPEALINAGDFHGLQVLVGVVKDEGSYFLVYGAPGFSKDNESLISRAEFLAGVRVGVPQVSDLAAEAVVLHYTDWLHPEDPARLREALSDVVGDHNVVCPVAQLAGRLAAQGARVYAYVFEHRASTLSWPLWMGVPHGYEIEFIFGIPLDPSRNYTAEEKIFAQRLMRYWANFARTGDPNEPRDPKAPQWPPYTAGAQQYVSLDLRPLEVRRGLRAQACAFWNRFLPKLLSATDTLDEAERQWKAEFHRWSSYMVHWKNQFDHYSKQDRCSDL

[17] = target: Centromere-associated protein E (Homo sapiens) (UniProt Q02224); test: Binding affinity to human CENP-E at 10 uM
[18] = target: Kinesin-like protein KIF11 (Homo sapiens) (UniProt P52732); test: Binding affinity to human Eg5 at 10 uM
[19] = target: Histone deacetylase 4 (Homo sapiens) (UniProt P56524); test: Binding affinity to human HDAC4 at 10 uM
Chain of Histone deacetylase 4 (Homo sapiens) (P56524 whole entry): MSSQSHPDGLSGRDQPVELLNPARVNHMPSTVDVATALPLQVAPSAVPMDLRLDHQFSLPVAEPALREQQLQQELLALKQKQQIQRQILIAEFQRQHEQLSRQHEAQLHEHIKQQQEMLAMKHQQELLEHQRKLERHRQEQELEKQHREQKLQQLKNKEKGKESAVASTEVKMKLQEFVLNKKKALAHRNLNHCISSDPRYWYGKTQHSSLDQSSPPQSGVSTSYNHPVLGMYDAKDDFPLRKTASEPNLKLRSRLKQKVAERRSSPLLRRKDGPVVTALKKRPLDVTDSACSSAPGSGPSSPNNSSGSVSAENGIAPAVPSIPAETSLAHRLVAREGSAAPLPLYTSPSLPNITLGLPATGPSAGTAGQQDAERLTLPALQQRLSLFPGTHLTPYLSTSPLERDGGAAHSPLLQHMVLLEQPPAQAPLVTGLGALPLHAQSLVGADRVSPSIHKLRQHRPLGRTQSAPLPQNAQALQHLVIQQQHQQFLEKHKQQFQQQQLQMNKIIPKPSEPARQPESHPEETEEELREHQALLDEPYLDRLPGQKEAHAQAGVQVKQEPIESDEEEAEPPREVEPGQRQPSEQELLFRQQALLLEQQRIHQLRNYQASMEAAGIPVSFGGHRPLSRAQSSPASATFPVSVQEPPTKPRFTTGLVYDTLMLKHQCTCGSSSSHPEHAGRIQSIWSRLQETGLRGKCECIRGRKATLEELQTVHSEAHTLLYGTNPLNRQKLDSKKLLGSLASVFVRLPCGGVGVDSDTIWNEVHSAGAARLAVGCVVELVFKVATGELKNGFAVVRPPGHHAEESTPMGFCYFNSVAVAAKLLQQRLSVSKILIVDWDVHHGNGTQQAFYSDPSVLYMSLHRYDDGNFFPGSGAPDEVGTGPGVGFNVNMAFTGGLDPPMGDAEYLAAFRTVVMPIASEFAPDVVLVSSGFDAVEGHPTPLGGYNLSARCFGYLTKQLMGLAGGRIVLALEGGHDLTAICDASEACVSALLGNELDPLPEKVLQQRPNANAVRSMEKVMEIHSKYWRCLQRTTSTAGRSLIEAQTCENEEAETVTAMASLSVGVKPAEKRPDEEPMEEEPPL

[20] = target: Adenylate cyclase (Homo sapiens) (UniProt Q8NFM4+O60503+Q08828+P40145+O60266+O95622+O43306+Q08462+P51828); test: Activation of adenylyl cyclase (unknown origin) at 10 uM; format: protein assay
[21] = target: T1, Prostaglandin G/H synthase 1 (Ovis aries, UniProt P05979); test: Inhibition of ovine COX1 assessed as production of PGF2-alpha preincubated with compound followed by the addition of 5 uM arachidonic acid as substrate by enzyme immunoassay
T1 sequence (P05979 whole entry): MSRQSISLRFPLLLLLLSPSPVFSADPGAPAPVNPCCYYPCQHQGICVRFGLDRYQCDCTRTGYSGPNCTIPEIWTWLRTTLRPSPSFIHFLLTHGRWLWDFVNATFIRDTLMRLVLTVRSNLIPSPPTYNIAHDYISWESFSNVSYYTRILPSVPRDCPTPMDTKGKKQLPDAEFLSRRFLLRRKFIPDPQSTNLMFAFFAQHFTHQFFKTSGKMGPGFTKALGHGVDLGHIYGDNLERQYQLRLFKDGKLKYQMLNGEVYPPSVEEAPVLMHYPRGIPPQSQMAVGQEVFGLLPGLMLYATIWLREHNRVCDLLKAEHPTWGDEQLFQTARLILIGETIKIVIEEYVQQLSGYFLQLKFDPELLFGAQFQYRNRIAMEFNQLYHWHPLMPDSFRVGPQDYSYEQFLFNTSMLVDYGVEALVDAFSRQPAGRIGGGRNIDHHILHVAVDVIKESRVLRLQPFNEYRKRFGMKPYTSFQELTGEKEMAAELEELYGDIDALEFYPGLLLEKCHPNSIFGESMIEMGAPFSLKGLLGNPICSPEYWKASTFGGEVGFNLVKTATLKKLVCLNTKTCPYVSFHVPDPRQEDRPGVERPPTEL

[22] = target: Type-2 angiotensin II receptor (Homo sapiens) (UniProt P50052); test: Binding affinity to human angiotensin receptor 2 at 10 uM by radioligand binding assay
[23] = target: B1 bradykinin receptor (Homo sapiens) (UniProt P46663); test: Binding affinity to human bradykinin 1 receptor at 10 uM by radioligand binding assay
[24] = target: Calcitonin gene-related peptide 1 (Homo sapiens) (UniProt P06881); test: Binding affinity to CGRP1 (unknown origin) at 10 uM
Chain of Calcitonin gene-related peptide 1 (Homo sapiens) (P06881 83-119 limits assumed): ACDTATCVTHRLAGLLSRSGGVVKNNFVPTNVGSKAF

[25] = target: Corticotropin-releasing factor receptor 1 (Homo sapiens) (UniProt P34998); test: Binding affinity to human CRF1 receptor at 10 uM by radioligand binding assay
Chain of Corticotropin-releasing factor receptor 1 (Homo sapiens) (P34998 whole entry): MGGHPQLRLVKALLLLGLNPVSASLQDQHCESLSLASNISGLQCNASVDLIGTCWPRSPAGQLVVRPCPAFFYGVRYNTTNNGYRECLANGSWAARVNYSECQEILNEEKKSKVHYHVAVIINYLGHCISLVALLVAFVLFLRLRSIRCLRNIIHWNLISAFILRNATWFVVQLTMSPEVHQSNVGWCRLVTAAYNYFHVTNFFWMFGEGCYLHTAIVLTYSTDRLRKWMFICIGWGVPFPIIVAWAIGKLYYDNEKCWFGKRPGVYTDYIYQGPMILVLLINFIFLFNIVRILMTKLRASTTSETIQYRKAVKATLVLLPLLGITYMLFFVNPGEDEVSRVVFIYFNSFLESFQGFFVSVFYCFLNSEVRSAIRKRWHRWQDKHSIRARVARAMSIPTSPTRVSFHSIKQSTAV

[26] = target: D(1A) dopamine receptor (Homo sapiens) (UniProt P21728); test: Binding affinity to human dopamine D1 receptor at 10 uM by radioligand binding assay
[27] = target: D(3) dopamine receptor (Homo sapiens) (UniProt P35462); test: Binding affinity to human dopamine D3 receptor at 10 uM by radioligand binding assay
[28] = target: Endothelin-1 receptor (Homo sapiens) (UniProt P25101); test: Binding affinity to human ETA receptor at 10 uM by radioligand binding assay
Chain of Endothelin-1 receptor (Homo sapiens) (P25101 whole entry): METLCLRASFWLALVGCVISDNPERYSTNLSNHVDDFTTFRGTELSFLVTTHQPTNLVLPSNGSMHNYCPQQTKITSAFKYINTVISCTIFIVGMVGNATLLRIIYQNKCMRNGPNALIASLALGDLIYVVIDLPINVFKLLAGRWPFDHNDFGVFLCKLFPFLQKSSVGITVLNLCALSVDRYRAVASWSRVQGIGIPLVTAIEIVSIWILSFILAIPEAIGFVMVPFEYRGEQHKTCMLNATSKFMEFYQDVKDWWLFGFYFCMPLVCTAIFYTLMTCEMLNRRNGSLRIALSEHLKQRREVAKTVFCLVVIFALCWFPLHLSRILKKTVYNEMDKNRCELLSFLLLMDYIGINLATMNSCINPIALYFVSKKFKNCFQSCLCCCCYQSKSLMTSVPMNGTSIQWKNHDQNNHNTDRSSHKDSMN

[29] = target: Endothelin receptor type B (Homo sapiens) (UniProt P24530); test: Binding affinity to human ETB receptor at 10 uM by radioligand binding assay
Chain of Endothelin receptor type B (Homo sapiens) (P24530 whole entry): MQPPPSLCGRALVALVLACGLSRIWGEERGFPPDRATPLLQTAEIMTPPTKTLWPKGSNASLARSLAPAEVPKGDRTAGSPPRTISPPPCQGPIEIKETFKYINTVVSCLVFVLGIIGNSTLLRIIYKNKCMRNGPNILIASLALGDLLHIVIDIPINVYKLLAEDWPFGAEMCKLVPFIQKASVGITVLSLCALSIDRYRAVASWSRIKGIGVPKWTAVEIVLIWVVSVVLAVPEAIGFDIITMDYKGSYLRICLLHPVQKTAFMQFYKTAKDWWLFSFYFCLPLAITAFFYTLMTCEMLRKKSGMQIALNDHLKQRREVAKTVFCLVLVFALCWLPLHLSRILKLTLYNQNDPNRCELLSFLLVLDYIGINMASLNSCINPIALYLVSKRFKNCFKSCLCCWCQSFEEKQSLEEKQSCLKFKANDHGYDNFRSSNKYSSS

Homo sapiens [30] = organism: Homo sapiens; test: Binding affinity to AMPA receptor (unknown origin) at 10 uM by radioligand binding assay
[31] = target: Leukotriene B4 receptor (Homo sapiens) (UniProt Q9NPC1+Q15722); test: Binding affinity to human leukotriene B4 receptor at 10 uM by radioligand binding assay; format: protein assay
[32] = target: Cysteinyl leukotriene receptor 1 (Homo sapiens) (UniProt Q9Y271); test: Binding affinity to human cysteinyl leukotriene receptor 1 at 10 uM by radioligand binding assay
Chain of Cysteinyl leukotriene receptor 1 (Homo sapiens) (Q9Y271 whole entry): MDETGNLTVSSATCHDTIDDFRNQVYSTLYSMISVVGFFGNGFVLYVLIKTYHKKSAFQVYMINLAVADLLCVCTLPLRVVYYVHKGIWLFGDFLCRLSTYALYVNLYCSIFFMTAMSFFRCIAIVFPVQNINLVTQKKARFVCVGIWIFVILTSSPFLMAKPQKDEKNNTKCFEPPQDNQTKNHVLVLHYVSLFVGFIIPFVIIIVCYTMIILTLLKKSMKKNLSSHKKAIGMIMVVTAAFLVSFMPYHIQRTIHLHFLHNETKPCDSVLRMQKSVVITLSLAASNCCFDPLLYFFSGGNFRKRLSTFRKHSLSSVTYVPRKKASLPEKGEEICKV

Homo sapiens [33] = organism: Homo sapiens; test: Binding affinity to neuropeptide Y receptor (unknown origin) at 10 uM by radioligand binding assay
Homo sapiens [34] = organism: Homo sapiens; test: Binding affinity to PCP receptor (unknown origin) at 10 uM by radioligand binding assay
[35] = target: Prostaglandin E2 receptor EP1 subtype (Homo sapiens) (UniProt P34995); test: Binding affinity to human EP1 receptor at 10 uM by radioligand binding assay
Chain of Prostaglandin E2 receptor EP1 subtype (Homo sapiens) (P34995 whole entry): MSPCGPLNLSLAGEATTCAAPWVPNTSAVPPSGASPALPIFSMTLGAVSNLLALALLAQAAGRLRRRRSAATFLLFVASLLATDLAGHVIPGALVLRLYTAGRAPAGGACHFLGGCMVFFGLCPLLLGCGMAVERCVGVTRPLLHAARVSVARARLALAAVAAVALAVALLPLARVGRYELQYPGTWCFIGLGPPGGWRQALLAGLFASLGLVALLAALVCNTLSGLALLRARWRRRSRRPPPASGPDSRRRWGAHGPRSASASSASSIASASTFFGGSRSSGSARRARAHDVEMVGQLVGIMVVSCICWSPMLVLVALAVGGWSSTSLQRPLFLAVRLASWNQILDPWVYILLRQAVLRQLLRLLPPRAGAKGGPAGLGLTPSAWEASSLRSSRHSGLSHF

[36] = target: Prostaglandin E2 receptor EP2 subtype (Homo sapiens) (UniProt P43116); test: Binding affinity to human EP2 receptor at 10 uM by radioligand binding assay
Chain of Prostaglandin E2 receptor EP2 subtype (Homo sapiens) (P43116 whole entry): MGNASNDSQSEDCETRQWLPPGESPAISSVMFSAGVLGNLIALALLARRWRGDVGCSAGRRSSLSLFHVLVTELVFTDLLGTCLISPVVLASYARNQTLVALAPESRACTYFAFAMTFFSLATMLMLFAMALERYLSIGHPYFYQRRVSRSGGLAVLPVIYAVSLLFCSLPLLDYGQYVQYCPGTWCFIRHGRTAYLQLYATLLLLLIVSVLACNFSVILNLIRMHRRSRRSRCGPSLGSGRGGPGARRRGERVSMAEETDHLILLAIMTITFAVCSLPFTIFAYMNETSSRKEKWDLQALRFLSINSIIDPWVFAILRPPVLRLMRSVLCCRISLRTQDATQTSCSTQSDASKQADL

CCCCCCNC(=O)Oc1cccc(-c2ccc([C@H](C)C(=O)O)cc2F)c1
Activity (Homo sapiens [1]): -8.1% | Activity [2]: 2.3% | Activity [3]: -9.5% | Activity [4]: 3.7% | Activity [5]: 4.2% | Activity (Homo sapiens [6]): -19.5% | Activity (Homo sapiens [7]): 10.1% | Activity (Homo sapiens [8]): -0.5% | Activity [9]: -1.4% | Activity [10]: -3% | Activity [11]: 0.4% | Activity [12]: -5.8% | Activity [13]: 0.5% | Activity [14]: -21.9% | Activity [15]: -5.3% | Activity [16]: -4.8% | Activity [17]: -3.3% | Activity [18]: 3.5% | Activity [19]: -8.7% | Activity [20]: 0.4% | pIC50 [21]: 9.54 | Activity [22]: 12.4% | Activity [23]: -5.1% | Activity [24]: -11.7% | Activity [25]: 11.9% | Activity [26]: -5.6% | Activity [27]: 0.7% | Activity [28]: -6.2% | Activity [29]: -17.5% | Activity (Homo sapiens [30]): -4.6% | Activity [31]: 1.2% | Activity [32]: 0% | Activity (Homo sapiens [33]): -2.7% | Activity (Homo sapiens [34]): -10.7% | Activity [35]: -8.8% | Activity [36]: 45%
